Results published in patent US8343990B2, “Substituted cyclopropyl compounds, compositions containing such compounds and methods of treatment” (Merck Sharp & Dohme Corp., priority 2008, dated 2013).
Structures can show the parent of a compound that is named as a salt.

Molecular target: T1, GPR119 receptor (UniProt Q8TDV5, S309L, species not given)
T1 sequence (Q8TDV5 1-335 S309L): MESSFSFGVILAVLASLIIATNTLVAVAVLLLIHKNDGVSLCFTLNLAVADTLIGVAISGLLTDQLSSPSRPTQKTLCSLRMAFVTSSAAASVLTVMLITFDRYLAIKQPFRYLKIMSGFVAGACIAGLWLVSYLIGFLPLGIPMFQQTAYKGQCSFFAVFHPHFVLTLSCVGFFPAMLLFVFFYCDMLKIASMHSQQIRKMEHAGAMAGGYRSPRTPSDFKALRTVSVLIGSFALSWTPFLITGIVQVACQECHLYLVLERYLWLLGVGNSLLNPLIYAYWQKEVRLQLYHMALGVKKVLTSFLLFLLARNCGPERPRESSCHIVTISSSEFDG
Assay: GPR119 signaling, cyclic AMP (cAMP) homogenous time resolved fluorescence (HTRF) assay
Format: cell-based
Settings: CHO cells with Gα15 and murine GPR119, or HEK293 Flp-In cells with human GPR119 S309L; table does not say which; read-out: Activity: inflection points, denoted as EC50 values (agonist activation of GPR119, cAMP)
Outline: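 Agonist-induced cAMP measured in CHO cells expressing Gα15 plus murine GPR119, or HEK293 Flp-In cells expressing human S309L variant. Suspended cells exposed to compound titration 60 min at room temperature, lysed, HTRF read after 60 min; EC50 and efficacy versus internal agonist from 4-parameter fit.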

EC50	Compound
50 to 200 nM	Clc1cnc(N2CCC(C3CC3CCOc3ccncc3)CC2)nc1 (racemic) [Ex 92, rac-trans-5-chloro-2-(4-{2-[2-(pyridin-4-yloxy)ethyl]cyclopropyl}piperidin-1-yl)pyrimidine]
50 to 200 nM	Cc1nc(C#N)cc(OC[C@@H]2C[C@H]2CC2CCN(c3ncc(Cl)cn3)CC2)n1 (racemic) [Ex 113, rac-trans-6-[(2-{[1-(5-chloropyrimidin-2-yl)piperidin-4-yl]methyl}cyclopropyl)methoxy]-2-methylpyrimidine-4-carbonitrile]
10 to 50 nM	Clc1cnc(N2CCC(C3CC3CCOc3ccc(-c4nnco4)cc3)CC2)nc1 (racemic) [Ex 15, rac cis-5-chloro-2-[4-(2-{2-[4-(1,3,4-oxadiazol-2-yl)phenoxy]ethyl}cyclopropyl)piperidin-1-yl]pyrimidine]
10 to 50 nM	N#Cc1nccc(OCC[C@@H]2C[C@@H]2C2CCN(c3ncc(Cl)cn3)CC2)n1 (racemic) [Ex 38, Rac-cis-4-(2-{2-[1-(5-chloropyrimidin-2-yl)piperidin-4-yl]cyclopropyl}ethoxy)pyrimidine-2-carbonitrile]
10 to 50 nM	CS(=O)(=O)c1ccc(OCC[C@@H]2C[C@H]2C2CCN(c3ncc(Cl)cn3)CC2)cc1 (racemic) [Ex 90, rac-trans-5-chloro-2-[4-(2-{2-[4-(methylsulfonyl)phenoxy]ethyl}cyclopropyl)piperidin-1-yl]pyrimidine]
10 to 50 nM	Clc1cnc(N2CCC(C3CC3CCOc3ccc(-c4ccn[nH]4)cc3)CC2)nc1 (racemic) [Ex 22, rac cis-5-chloro-2-[4-(2-{2-[4-(1H-pyrazol-3-yl)phenoxy]ethy]}cyclopropyl)piperidin-1-yl]pyrimidine]
< 10 nM	Cc1nnc(-c2ccc(OCCC3CC3C3CCN(c4ncc(Cl)cn4)CC3)cc2F)o1 (single isomer, unassigned) [Ex 83 F, cis-5-chloro-2-[4-(2-{2-[3-fluoro-4-(5-methyl-1,3,4-oxadiazol-2-yl)phenoxy]ethyl}cyclopropyl)piperidin-1-yl]pyrimidine]
< 10 nM	Cc1nc(C#N)cc(OCC[C@@H]2C[C@@H]2C2CCN(c3ccc(Cl)cn3)CC2)n1 (racemic) [Ex 43, Rac-cis-6-(2-{2-[1-(5-chloropyridin-2-yl)piperidin-4-yl]cyclopropyl}ethoxy)-2-methylpyrimidine-4-carbonitrile]
10 to 50 nM	Cc1cnc(N2CCC(C3CC3CCOc3ccc(-n4ccnn4)cc3)CC2)nc1 (racemic) [Ex 27c, rac cis-5-methyl-2-[4-(2-{2-[4-(1H-1,2,3-triazol-1-yl)phenoxy]ethyl}cyclopropyl)piperidin-1-yl]pyrimidine]
10 to 50 nM	Clc1cnc(N2CCC([C@@H]3C[C@@H]3CCOc3ccncc3)CC2)nc1 (racemic) [Ex 55, Rac-cis-5-chloro-2-(4-{2-[2-(pyridin-4-yloxy)ethyl]cyclopropyl}piperidin-1-yl)pyrimidine]
< 10 nM	Cc1cc(OCC[C@@H]2C[C@@H]2C2CCN(c3ncc(Cl)cn3)CC2)nc(C#N)n1 (racemic) [Ex 52, Rac-cis-4-(2-{2-[1-(5-chloropyrimidin-2-yl)piperidin-4-yl]cyclopropyl}ethoxy)-6-methylpyrimidine-2-carbonitrile]
50 to 200 nM	Clc1cnc(N2CCC(C3CC3CCOc3cccc(-n4cncn4)c3)CC2)nc1 (racemic) [Ex 9, rac cis-5-chloro-2-[4-(2-{2-[3-(1H-1,2,4-triazol-1-yl)phenoxy]ethyl}cyclopropyl)piperidin-1-yl]pyrimidine]
< 10 nM	Cc1nnc(-c2ccc(OCC[C@H]3C[C@H]3C3CCN(c4ccc(C(F)(F)F)cn4)CC3)cc2F)o1 (racemic) [Ex 89, Rac-cis-2-[4-(2-{2-[3-fluoro-4-(5-methyl-1,3,4-oxadiazol-2-yl)phenoxy]ethyl}cyclopropyl)piperidin-1-yl]-5-(trifluoromethyl)pyridinium trifluoroacetate]
